From patent US11198713B2, “Agents modulating beta-catenin functions and methods thereof” (FOG PHARMACEUTICALS, INC., priority 2017, dated 2021)
In brackets after ≈: the same amount, converted by molar mass. Like-named read-outs stand apart in the source and are kept apart here. Values belong to the molecule of their own block, whether it stands above or below them. Numbered stars: 1 amine (or outer) side, 2 acyl side, 3 side chain; on linkers, the order of the positions; unused ones are H or OH. Bridge positions count the residues as written; N and C are the ends. Square brackets hold non-standard residues; d marks the D form. Primed or numbered codes have the meaning given here. Ends that are not written are not given here. Peptide text beside a SMILES is read from it. MB = Monomer B = PyrS, Alloc-pyrrolidine stapling residue (allyl carbamate on pyrrolidine N); dαMeDab(Me) = CN(CC[C@@](C)(N[*:1])C(=O)[*:2])[*:3]; X1 = O=C([C@]1(N[*:1])CCN([*:3])C1)[*:2]; X2 = O=C(OCC=CCOC(=O)[*:2])[*:1]; R8 = C=CCCCCCC[C@@](C)(N)C(=O)O; S5 = C=CCCC[C@](C)(N)C(=O)O; PEG1′ = not defined here

Assays:
[1] = target: T1, full-length beta-catenin (Axin site) (Homo sapiens, UniProt P35222); test: Competition fluorescence polarization assay (Axin site probe); format: binding; conditions: competition fluorescence polarization, Table 2; read-out: in vitro FP EC50
T1 construct: 15 nM full-length beta-catenin, 20 nM FITC labeled peptide in buffer
T1 sequence (P35222 1-781): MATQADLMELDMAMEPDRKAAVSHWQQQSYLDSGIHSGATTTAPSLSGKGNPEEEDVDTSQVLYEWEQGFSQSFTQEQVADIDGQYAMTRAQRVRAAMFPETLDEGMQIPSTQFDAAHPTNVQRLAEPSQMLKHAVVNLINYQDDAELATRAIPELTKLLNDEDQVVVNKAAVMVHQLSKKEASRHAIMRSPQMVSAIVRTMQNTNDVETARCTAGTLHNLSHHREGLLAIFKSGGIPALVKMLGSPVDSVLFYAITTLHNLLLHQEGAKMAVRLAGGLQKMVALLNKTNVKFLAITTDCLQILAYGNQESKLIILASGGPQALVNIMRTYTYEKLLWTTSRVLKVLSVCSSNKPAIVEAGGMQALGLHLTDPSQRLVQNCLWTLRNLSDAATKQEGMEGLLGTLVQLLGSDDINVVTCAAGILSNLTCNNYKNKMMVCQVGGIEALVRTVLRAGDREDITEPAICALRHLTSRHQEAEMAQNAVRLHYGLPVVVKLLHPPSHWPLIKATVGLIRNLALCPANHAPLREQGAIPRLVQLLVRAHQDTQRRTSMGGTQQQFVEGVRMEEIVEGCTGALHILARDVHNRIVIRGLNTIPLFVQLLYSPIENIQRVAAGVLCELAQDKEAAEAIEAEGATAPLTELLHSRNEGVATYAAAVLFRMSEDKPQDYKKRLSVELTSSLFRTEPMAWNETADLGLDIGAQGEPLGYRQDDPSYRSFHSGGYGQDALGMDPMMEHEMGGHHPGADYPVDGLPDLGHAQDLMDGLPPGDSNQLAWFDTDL
Outline: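 Competition FP: 15 nM full-length β-catenin pre-incubated 5 min with 20 nM FITC-labelled stapled Axin-site peptide, then titrated peptide added (3-fold series from 5 μM) for 15 min in the dark. Buffer 50 mM Tris pH 8.0, 250 mM NaCl, 2% glycerol, 0.5 mM EDTA; duplicate reads.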

[2] = target: T2, biotinylated beta-catenin (Homo sapiens, UniProt P35222); test: Surface Plasmon Resonance (Biacore); format: binding
T2 sequence (P35222 1-781): T1 sequence (P35222 1-781)
Procedure: Additionally or alternatively, binding to beta-catenin may be measured by Surface Plasmon Resonance. In an exemplary assay, approximately 6 nmol dried peptide diluted in buffer (50 mM Tris pH 8.0, 300 mM NaCl, 2% glycerol, 0.5 mM TCEP, 0.5 mM EDTA, 0.005% Tween-20, 1 mg/mL CM Dextran, 0.02% w/v sodium azide) was assayed on a Biacore X100 using the Biacore Biotin CAPture Kit (GE Healthcare) and biotinylated beta-catenin. Results were analyzed using the Biacore X100 Evaluation Software. […] FPO217c (Isomer 2) bound to the armadillo domain of β-catenin with a Kd of 2 nM.

Plasma PK in rats = format: in vivo; conditions: IV 0.5 mg/kg, male Sprague-Dawley rats
Procedure: (§1) FIG. 6. Exemplary pharmacokinetic properties. Peptides were formulated in 10% DMSO:90% saline and dosed by IV at 0.5 mg/kg per compound in three male Sprague-Dawley rats. Serial bleed time-points were taken at 2 min, 6 min, 10 min, 15 min, 30 min, 1, 2, 4, 6, 8, 12 and 24 h and analyzed by quantitative LC/MS using a Thermo Q-Exactive Focus LC/MS/MS. Samples were prepared by protein precipitation with MeOH. Data were fit to a two-compartment model.
as §1, with “Various technologies can be utilized to assess properties of provided agents, e.g., stapled peptides, in accordance with the present disclosure. In some embodiments, plasma PK methods are used to assess” for “FIG. 6. Exemplary”, “In an exemplary assay, peptides” for “Peptides”, “model. […] Exemplary data are presented, e.g., in FIG. 6.” for “model.”

[3] = Solubility in DPBS (A280 of supernatant); format: physicochemical; conditions: DPBS
Outline: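 Dried peptide reconstituted in DPBS in triplicate, vortexed, sonicated and centrifuged. Supernatant A280 measured; concentration calculated using the tryptophan extinction coefficient.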

beta-catenin = target: T3, beta-catenin (Homo sapiens, UniProt P35222); conditions: reported in Grossmann et al.; cited from earlier work
T3 sequence (P35222 1-781): T1 sequence (P35222 1-781)

full-length beta-catenin [4] = target: T4, full-length beta-catenin (UniProt P35222 2-781, limits assumed); test: competition FP, grade of FP EC50 (++: 100-500 nM)
T4 construct: mature; also called full-length ß-Catenin; β-catenin
T4 sequence (looked up): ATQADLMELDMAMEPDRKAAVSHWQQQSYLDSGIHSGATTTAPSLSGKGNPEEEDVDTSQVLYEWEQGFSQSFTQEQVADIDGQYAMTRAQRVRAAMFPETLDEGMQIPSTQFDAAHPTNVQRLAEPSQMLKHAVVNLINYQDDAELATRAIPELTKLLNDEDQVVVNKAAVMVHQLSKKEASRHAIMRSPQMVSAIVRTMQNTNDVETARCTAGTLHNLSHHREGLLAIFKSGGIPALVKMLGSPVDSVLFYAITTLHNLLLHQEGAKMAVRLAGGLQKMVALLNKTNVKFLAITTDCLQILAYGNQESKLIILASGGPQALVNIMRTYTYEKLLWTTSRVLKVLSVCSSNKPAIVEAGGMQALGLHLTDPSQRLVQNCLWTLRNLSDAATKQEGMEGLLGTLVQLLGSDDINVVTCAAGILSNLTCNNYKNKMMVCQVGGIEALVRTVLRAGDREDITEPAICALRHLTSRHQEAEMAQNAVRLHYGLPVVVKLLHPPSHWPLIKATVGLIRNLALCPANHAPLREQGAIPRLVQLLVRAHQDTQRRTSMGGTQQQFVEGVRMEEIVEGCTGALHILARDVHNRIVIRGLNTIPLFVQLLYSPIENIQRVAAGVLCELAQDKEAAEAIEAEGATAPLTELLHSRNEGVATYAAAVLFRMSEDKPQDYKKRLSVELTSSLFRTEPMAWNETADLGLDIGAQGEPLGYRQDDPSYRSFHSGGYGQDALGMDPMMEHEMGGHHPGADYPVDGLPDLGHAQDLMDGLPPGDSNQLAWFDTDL
Outline: (§2)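 Compound 3-fold serially diluted from 5 µM in Tris pH 8.0, 250 mM NaCl buffer, added to premixed 15 nM full-length β-catenin and 20 nM FITC-labelled stapled axin-site peptide probe. Incubated 15 min in the dark, polarization read in duplicate.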

full-length beta-catenin [5] = target: T4, full-length beta-catenin; test: competition FP; control of Table 5
full-length beta-catenin [6] = target: T4, full-length beta-catenin; test: competition FP, displacement of a labeled probe from the axin site
Procedure: In some embodiments, a competition fluorescence polarization assay is used to assess binding of provided compounds to beta-catenin. In an exemplary procedure, solutions of provided compounds, e.g., provided stapled peptides, were prepared in a buffer (e.g., 50 mM Tris pH 8.0, 250 mM NaCl, 2% glycerol, 0.5 mM EDTA, 0.02% w/v sodium azide) using a 3-fold serial dilution from 5 µM. Probe solution (15 nM full-length ß-Catenin, 20 nM FITC labeled peptide in buffer) was prepared and incubated for a period of time, e.g., 5 minutes, and the a volume, e.g., 40 µL per well plated in suitable plate, e.g., a black polystyrene 384-well plate (Corning). Equal volume of the serial diluted peptide was added to the plate and incubated protected from light for 15 minutes prior to read. Reads were performed on a Spectramax M5 (Molecular Devices) in duplicate. Suitable probe was FITC-PEG1-PQ-S5-ILD-S5-HVRRVWR (SEQ ID NO: 1) (hydrocarbon staple formed by two S5 via olefin metathesis) and/or FITC-bA-PQ-S5-ILD-S5-HVRRVWR (SEQ ID NO: 3) (hydrocarbon staple formed by two S5 via olefin metathesis). […] Another peptide, FPO217c (Ac-AR_8ILDAHIM$B5$RVW (SEQ ID NO: 280), with N-terminal proline removed and valine replaced with isoleucine compared to FP0025c) was prepared.

full-length beta-catenin [7] = target: T4, full-length beta-catenin; test: competition FP, grade of FP EC50 (+++: <=100 nM)
Outline: as §2

[8] = Biacore, biotinylated beta-catenin, read-out: Kd
[9] = Table 3 Part A, read-out: Binding Kd
[10] = Table 3 Part A, read-out: Solubility in DPBS

Molecule: CC[C@H](C)[C@@H]1NC(=O)[C@H](Cc2c[nH]cn2)NC(=O)[C@H](C)NC(=O)[C@H](CC(=O)O)NC(=O)[C@H](CC(C)C)NC(=O)[C@H]([C@@H](C)CC)NC(=O)[C@](C)(NC(=O)[C@H](C)NC(C)=O)CCN(C)C(=O)OCC=CCOC(=O)N2CC[C@@](C(=O)N[C@@H](CCCNC(=N)N)C(=O)N[C@H](C(=O)N[C@@H](Cc3c[nH]c4ccccc34)C(N)=O)C(C)C)(C2)NC1=O [FP0597c, Ac-A-MG-I-L-D-A-H-I-MB-R-V-W-NH2] (Ac-A[dαMeDab(Me)]ILDAHI[X1]RVW-NH2; linker 2-9 via X2)
EC50 [1]: < 100 nM
Kd [2, 8]: 7 nM
Kd ([2]; Table 2, read-out: Kd by SPR): 4 nM
Kd [2, 9]: 4 nM
plasma half-life compared with FP0217c (Isomer 2) (Plasma PK in rats): shorter
solubility ([3]; Table 2, read-out: Solubility): 98 µM (≈ 158 µg/mL)
solubility thermodynamic [3, 10]: 98 µM (≈ 158 µg/mL)
solubility ([3]; read-out: solubility): 98 µM (≈ 158 µg/mL)

Molecule: Ac-PEG1-RRWPRS5ILDS5HVRRVWR (SEQ ID NO: 278) ({Ac-PEG1′}-RRWPR[S5]ILD[S5]HVRRVWR; staple 6-10) [StAx-35R, "3 amino acids were added to the N-terminus of the peptide and one other Q→R mutation was made ... the resulting peptide StAx-35R"]
affinity compared to StAx-33 (beta-catenin): reduced

Molecule: Ac-PA[R8]ILDAHV[MB]RVW-NH2 (staple 3-10) [FP0025c]
EC50 (full-length beta-catenin [6]): < 100 nM
FP EC50 (full-length beta-catenin [7]): ≤ 100 nM

Continued, values first:

EC50 [1]: < 100 nM
Kd [2, 8]: 2 nM
Kd [2, 9]: 4 nM
half-life (Plasma PK in rats; rat, plasma): > 1 h
solubility ([3]; Table 2, read-out: Solubility): 7 µM (≈ 11.1 µg/mL)
solubility [3, 10]: 12 µM (≈ 19 µg/mL)
Molecule: CC[C@H](C)[C@@H]1NC(=O)[C@H](Cc2c[nH]cn2)NC(=O)[C@H](C)NC(=O)[C@H](CC(=O)O)NC(=O)[C@H](CC(C)C)NC(=O)[C@H]([C@@H](C)CC)NC(=O)[C@](C)(NC(=O)[C@H](C)NC(C)=O)CCCCCCC=CCOC(=O)N2CC[C@@](C(=O)N[C@@H](CCCNC(=N)N)C(=O)N[C@H](C(=O)N[C@@H](Cc3c[nH]c4ccccc34)C(N)=O)C(C)C)(C2)NC1=O (single isomer, unassigned) [FPO217c Isomer 2, Ac-AR8ILDAHIMBRVW (SEQ ID NO: 280)]

FP EC50 (full-length beta-catenin [4]): 100 to 500 nM
EC50 (full-length beta-catenin [5]): ~100 nM
B1: FP0787s (peptide)
peptide: Ac-PQ[S5]ILD[S5]HVRRVWR-NH2
modifications: staple 3-7
SMILES: CC[C@H](C)[C@@H]1NC(=O)[C@@](C)(NC(=O)[C@H](CCC(N)=O)NC(=O)[C@@H]2CCCN2C(C)=O)CCCC=CCCC[C@@](C)(C(=O)N[C@@H](Cc2c[nH]cn2)C(=O)N[C@H](C(=O)N[C@@H](CCCNC(=N)N)C(=O)N[C@@H](CCCNC(=N)N)C(=O)N[C@H](C(=O)N[C@@H](Cc2c[nH]c3ccccc23)C(=O)N[C@@H](CCCNC(=N)N)C(N)=O)C(C)C)C(C)C)NC(=O)[C@H](CC(=O)O)NC(=O)[C@H](CC(C)C)NC1=O
notes: also called S5/S5
